Measured values published in PMC5400565, “Real-time near-infrared fluorescence imaging using cRGD-ZW800-1 for intraoperative visualization of multiple cancer types” (Oncotarget, 2017).

How the values were obtained:
BxPC-3 tumors and organs = test: Ex vivo biodistribution, BxPC-3 model; format: in vivo, mice; details: 4 h post injection
Protocol: (§1) After imaging, mice were sacrificed and OSC-19 and BxPC-3 tumors were quickly frozen in isopentane at -80°C for histological evaluation. Tissues were sectioned at 10 μm and fluorescence imaging was performed using fluorescence microscopy (Nikon eclipse e800, Nikon, Amsterdam, The Netherlands). All histologic sections were stained with standard hematoxylin-eosin stain (HE). Organs of mice with colorectal and pancreatic cancer were collected and imaged using the Pearl® to evaluate biodistribution.
(§2) Mice were administered with 0.25 (HT-29 model only), 1.0, 10, or 30 nmol cRGD-ZW800-1 to evaluate tumor signals, biodistribution, and to calculate TBRs (n = 3 per dose group). At 4 h (BxPC-3 model) and 24 h (HT-29 model) after injection, mice were fully dissected and fluorescence intensity of their organs was measured.
(§3) Mice bearing orthotopic OSC-19 tumors (n = 2) were administrated with 10 nmol cRGD-ZW800-1 and imaged at 4 h. Mice bearing orthotopic MCF-7 tumors (n = 2) were injected with 10 nmol cRGD-ZW800-1 and imaged at 0.5, 1, 2, 4, 6, 8, 24, and 48 h post injection. One mouse with 2 MCF-7 tumors was administered with 10 nmol cRGD-ZW800-1 and imaged at 4 h post injection while its skin was partially removed. In vivo TBRs were calculated by dividing the mean fluorescence signals of tumors by the mean of surrounding tissue. Ex vivo organ-to-tumor ratios were calculated by dividing the fluorescence intensity of the organ by that of the tumor.

Cannabinoid CB2 = target: T1, Cannabinoid CB2 (Homo sapiens, UniProt P34972); test: Off-target screening (Eurofins Cerep), CB2; format: binding
T1 construct: Eurofins Cerep SA (contract screening)

Adrenergic β2 = target: T2, Adrenergic β2 (Homo sapiens, UniProt P07550); test: Off-target screening (Eurofins Cerep), β2; format: binding
T2 construct: Eurofins Cerep SA (contract screening)

Serotonin 5-HT2A = target: T3, Serotonin 5-HT2A (Homo sapiens, UniProt P28223); test: Off-target screening (Eurofins Cerep), 5-HT2A; format: binding
T3 construct: Eurofins Cerep SA (contract screening)

[1] = target: T4, Norepinephrine transporter (Homo sapiens, UniProt P23975); test: Off-target screening (Eurofins Cerep), norepinephrine transporter; format: binding
T4 construct: Eurofins Cerep SA (contract screen)

OSC-19 oral tumors = test: NIR fluorescence imaging, OSC-19 oral tumors; format: in vivo, mice; details: orthotopic OSC-19 tongue model; 10 nmol; 4 h; Pearl; n = 2; mean ± SD
Protocol: To induce subcutaneous tumors, colorectal cancer cells (HT-29) were injected at 4 sites on the back (500,000 cells per spot). Subsequently, these colorectal tumor cells were transplanted on the colon of other mice, as described by Tseng et al.. Approximately 500,000 pancreatic tumor cells (BxPC-3) were injected into the pancreas, as previously described by Kim et al.. Approximately 40,000 oral tumor cells (OSC-19) were injected in the tongue, as previously described by van Driel et al.. Approximately 500,000 breast tumor cells (MCF-7) were injected in both sides of the mammary fat pad to induce breast cancer tumors.
All animals were imaged using a Pearl® imager (LI-COR, Lincoln, NE) and an original FLARE® prototype. Animals with HT-29 tumors were imaged at 4 and 24 h post injection; animals with BxPC-3 and OSC-19 tumors at 4 h only. Animals with MCF-7 tumors were imaged at 0.5, 1, 2, 4, 6, 8, 24 and 48 h post injection. […] TBRs were calculated by dividing the tumor signal by the background signal. […]
Mice bearing orthotopic OSC-19 tumors (n = 2) were administrated with 10 nmol cRGD-ZW800-1 and imaged at 4 h. […] In vivo TBRs were calculated by dividing the mean fluorescence signals of tumors by the mean of surrounding tissue. Ex vivo organ-to-tumor ratios were calculated by dividing the fluorescence intensity of the organ by that of the tumor.

Opioid κ (KOP) = Opioid κ (KOP) (Rattus norvegicus, UniProt P34975); test: biochemical; format: binding
HT-29 tumors and organs = test: Ex vivo biodistribution, HT-29 model; format: in vivo, mice; details: 24 h post injection
Protocol: as §1, §2
as §3, with “One mouse with 2 MCF-7 tumors was administered with 10 nmol cRGD-ZW800-1 and imaged at 4 h post injection while its skin was partially removed.” left out

[2] = system: GABA channels BZD (central); test: Off-target screening (Eurofins Cerep), BZD (central); format: binding
Excerpt: Off-target interactions are binding of tracers to other components on the cell surface than the actual target site. These non-specific interactions are often of low affinity and easily missed, but can have significant effects. We outsourced the screening for in vitro for off-target interactions of cRGD-ZW800-1 to Eurofins Cerep SA, Le bois l’Evêque, France. They assessed the percentage of inhibition of a reference compound in 44 selected targets, including G protein-coupled receptors (GPCRs), transporters, ion channels, nuclear receptors, kinases and other non-kinase enzymes. These targets were recommended by four major pharmaceutical companies. The complete list is included in Supplementary Table 1 of the Supplementary Data. Each assay was performed twice using 10 μM cRGD-ZW800-1 and a reference compound. Inhibition higher than 50% was considered to represent a significant effect of cRGD-ZW800-1. Results showing between 20% and 50% were considered weak to moderate effects, while lower than 20% was not considered significant and mostly attributable to variability of the signal around the control level.

5-HT transporter = target: T5, 5-HT transporter (Homo sapiens, UniProt P31645); test: Off-target screening (Eurofins Cerep), 5-HT transporter; format: binding
T5 construct: Eurofins Cerep SA (contract screen)

Vasopressin V1a = target: T6, Vasopressin V1a (Homo sapiens, UniProt P37288); test: Off-target screening (Eurofins Cerep), V1a; format: binding
T6 construct: Eurofins Cerep SA (contract screening)

COX1 = target: T7, COX1 (Homo sapiens, UniProt P23219); test: Off-target screening (Eurofins Cerep), COX1; format: biochemical
T7 construct: Eurofins Cerep SA (contract screen)

Acetylcholinesterase = target: T8, Acetylcholinesterase (Homo sapiens, UniProt P22303); test: Off-target screening (Eurofins Cerep), acetylcholinesterase; format: biochemical
T8 construct: Eurofins Cerep SA (contract screen)

[3] = target: T9, Cholecystokinin CCK1 (CCKA) (Homo sapiens, UniProt P32238); test: Off-target screening (Eurofins Cerep), CCK1 (CCKA); format: binding
T9 construct: Eurofins Cerep SA (contract screening)

Adrenergic β1 = target: T10, Adrenergic β1 (Homo sapiens, UniProt P08588); test: Off-target screening (Eurofins Cerep), β1; format: binding
T10 construct: Eurofins Cerep SA (contract screening)

[4] = 10 μM cRGD-ZW800-1, format H, Ag, performed twice, read-out: % Inhibition of Control Specific Binding
[5] = 10 μM, mean of 2, read-out: % of Control Specific Binding Mean
[6] = 10 μM cRGD-ZW800-1, format H, An, performed twice, read-out: % Inhibition of Control Specific Binding
[7] = read-out: % Inhibition of Control Specific Binding
[8] = read-out: % of Control Specific Binding Mean
[9] = 10 μM cRGD-ZW800-1, format H, performed twice, read-out: % Inhibition of Control Specific Binding

T2 sequence (P07550 whole entry): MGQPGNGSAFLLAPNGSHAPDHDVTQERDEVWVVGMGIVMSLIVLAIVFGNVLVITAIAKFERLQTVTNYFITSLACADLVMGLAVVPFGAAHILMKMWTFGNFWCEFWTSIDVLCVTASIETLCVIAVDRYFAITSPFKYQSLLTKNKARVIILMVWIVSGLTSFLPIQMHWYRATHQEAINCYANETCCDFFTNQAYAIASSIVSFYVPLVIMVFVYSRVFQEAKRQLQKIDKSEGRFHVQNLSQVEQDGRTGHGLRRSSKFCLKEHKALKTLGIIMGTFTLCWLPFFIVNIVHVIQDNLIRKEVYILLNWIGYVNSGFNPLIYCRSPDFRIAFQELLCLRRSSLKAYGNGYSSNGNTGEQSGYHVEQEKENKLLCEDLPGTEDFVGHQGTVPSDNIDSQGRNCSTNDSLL
T1 sequence (P34972 whole entry): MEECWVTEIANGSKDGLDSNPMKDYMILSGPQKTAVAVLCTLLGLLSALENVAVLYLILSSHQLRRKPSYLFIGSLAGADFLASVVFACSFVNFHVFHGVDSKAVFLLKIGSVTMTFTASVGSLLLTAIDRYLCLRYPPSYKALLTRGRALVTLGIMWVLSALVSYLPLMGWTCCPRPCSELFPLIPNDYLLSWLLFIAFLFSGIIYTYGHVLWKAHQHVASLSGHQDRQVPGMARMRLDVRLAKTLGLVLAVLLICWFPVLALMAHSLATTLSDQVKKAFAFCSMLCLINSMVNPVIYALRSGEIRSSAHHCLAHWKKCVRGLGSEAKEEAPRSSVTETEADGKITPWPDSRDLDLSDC
T10 sequence (P08588 whole entry): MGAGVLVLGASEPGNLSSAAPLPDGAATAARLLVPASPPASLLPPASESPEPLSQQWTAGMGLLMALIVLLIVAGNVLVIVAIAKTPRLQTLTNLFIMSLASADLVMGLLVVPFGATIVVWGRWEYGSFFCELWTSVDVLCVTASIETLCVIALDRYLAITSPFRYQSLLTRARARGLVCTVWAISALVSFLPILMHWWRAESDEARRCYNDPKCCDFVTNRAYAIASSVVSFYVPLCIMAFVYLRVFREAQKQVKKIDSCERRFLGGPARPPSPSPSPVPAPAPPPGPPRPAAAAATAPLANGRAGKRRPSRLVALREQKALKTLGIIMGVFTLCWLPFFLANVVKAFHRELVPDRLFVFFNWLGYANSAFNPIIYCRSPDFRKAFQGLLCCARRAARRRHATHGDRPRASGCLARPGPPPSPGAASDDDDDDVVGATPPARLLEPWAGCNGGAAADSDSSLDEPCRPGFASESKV
T3 sequence (P28223 whole entry): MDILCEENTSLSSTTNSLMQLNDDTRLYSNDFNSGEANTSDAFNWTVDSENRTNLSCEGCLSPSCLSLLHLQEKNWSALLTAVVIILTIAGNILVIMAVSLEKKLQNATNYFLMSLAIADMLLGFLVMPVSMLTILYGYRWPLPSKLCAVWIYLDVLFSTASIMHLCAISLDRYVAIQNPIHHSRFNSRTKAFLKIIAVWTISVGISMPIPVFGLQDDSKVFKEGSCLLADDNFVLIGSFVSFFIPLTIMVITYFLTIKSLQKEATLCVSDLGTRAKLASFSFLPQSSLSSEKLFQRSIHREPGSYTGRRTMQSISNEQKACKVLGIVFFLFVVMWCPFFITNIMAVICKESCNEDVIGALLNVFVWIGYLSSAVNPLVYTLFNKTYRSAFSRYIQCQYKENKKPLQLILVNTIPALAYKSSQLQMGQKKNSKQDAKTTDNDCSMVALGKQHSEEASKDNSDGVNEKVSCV
T5 sequence (P31645 whole entry): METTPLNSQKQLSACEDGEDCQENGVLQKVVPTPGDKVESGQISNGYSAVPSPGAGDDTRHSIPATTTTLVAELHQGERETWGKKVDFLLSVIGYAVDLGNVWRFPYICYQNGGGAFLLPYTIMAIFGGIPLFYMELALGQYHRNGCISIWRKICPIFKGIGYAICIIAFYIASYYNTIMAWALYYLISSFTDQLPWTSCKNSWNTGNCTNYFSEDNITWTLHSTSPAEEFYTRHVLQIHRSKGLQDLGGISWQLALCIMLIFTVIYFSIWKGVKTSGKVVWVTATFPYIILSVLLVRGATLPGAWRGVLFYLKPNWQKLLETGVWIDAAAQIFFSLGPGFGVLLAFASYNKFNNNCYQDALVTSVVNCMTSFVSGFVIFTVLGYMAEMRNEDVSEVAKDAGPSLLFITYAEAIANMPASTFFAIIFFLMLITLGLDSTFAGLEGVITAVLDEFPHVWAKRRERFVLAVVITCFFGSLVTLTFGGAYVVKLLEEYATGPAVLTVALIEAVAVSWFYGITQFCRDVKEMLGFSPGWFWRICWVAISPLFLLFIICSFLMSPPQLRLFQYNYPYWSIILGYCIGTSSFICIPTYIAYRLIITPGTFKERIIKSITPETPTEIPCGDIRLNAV
T9 sequence (P32238 whole entry): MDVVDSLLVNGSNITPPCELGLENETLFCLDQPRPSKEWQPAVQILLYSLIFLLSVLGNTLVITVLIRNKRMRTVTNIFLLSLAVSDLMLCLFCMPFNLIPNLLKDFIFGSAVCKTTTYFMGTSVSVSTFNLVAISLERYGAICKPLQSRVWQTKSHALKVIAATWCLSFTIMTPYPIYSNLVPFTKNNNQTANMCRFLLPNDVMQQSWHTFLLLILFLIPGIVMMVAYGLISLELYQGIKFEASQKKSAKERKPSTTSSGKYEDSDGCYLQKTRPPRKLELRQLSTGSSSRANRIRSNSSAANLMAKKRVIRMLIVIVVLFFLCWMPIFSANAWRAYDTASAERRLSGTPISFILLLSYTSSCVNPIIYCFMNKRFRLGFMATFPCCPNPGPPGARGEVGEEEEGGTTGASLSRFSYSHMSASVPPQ
T8 sequence (P22303 32-614): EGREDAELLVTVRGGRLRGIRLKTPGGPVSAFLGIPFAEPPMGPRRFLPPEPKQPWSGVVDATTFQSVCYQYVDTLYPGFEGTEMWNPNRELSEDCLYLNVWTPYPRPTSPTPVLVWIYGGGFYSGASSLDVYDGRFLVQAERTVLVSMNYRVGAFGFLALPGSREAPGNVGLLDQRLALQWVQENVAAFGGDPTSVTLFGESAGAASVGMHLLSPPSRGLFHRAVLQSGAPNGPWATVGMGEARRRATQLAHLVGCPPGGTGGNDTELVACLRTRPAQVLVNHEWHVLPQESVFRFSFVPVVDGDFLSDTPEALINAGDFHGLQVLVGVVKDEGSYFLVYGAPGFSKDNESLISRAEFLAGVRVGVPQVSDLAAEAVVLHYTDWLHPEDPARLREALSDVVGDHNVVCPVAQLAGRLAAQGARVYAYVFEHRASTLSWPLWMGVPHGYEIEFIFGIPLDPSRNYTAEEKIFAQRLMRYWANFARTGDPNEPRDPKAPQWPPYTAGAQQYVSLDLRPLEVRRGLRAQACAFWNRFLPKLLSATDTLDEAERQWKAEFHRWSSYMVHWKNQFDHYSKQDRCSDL
T7 sequence (P23219 24-599): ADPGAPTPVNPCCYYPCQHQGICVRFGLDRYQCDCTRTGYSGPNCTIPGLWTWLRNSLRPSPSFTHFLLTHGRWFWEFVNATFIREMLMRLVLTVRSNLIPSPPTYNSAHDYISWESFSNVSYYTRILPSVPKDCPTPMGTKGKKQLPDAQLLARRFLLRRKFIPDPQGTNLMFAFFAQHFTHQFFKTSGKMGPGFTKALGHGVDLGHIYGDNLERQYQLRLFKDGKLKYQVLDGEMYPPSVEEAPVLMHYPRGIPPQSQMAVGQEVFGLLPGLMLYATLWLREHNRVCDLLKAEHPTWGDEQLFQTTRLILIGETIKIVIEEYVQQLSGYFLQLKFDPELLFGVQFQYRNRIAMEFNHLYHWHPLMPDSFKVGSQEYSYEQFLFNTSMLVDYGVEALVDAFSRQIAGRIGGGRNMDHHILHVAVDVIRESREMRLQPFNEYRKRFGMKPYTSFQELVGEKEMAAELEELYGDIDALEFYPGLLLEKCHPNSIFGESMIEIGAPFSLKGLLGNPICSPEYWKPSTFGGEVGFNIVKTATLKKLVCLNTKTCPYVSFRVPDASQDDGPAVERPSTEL
Opioid κ (KOP), sequence (P34975 whole entry): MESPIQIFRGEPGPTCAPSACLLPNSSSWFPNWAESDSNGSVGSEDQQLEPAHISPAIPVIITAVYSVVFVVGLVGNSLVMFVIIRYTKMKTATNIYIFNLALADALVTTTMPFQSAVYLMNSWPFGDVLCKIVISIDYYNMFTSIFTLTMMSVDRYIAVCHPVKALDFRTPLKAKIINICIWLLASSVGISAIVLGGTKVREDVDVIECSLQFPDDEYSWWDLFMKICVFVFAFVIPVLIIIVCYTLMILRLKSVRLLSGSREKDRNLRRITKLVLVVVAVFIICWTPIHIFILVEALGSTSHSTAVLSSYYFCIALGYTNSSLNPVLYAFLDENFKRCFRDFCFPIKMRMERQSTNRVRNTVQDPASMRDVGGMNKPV
T6 sequence (P37288 whole entry): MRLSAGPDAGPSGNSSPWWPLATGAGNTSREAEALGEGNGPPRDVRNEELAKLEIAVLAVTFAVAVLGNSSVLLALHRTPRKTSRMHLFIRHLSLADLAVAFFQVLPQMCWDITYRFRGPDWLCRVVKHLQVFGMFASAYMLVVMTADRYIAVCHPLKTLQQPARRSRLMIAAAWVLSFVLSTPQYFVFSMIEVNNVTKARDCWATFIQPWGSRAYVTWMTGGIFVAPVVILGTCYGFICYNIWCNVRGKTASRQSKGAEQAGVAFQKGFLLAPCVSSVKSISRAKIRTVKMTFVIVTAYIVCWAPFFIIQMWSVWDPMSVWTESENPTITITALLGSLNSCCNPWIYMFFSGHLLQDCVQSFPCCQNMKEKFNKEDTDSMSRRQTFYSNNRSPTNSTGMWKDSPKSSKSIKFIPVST

## CC1(C)C(/C=C/C2=C(Oc3ccc(CCC(=O)NCCCC[C@@H]4NC(=O)[C@@H](Cc5ccc(O)cc5)NC(=O)[C@H](CC(=O)O)NC(=O)CNC(=O)[C@H](CCCNC(=N)N)NC4=O)cc3)C(=C/C=C3/N(CCC[N+](C)(C)C)c4ccc(S(=O)(=O)O)cc4C3(C)C)/CCC2)=[N+](CCC[N+](C)(C)C)c2ccc(S(=O)(=O)O)cc21 [cRGD-ZW800-1]
BxPC-3 tumors and organs; all doses, ex vivo, Pearl
  tumor fluorescence relative to skin, intestines, lungs, muscle, gallbladder, brain, and blood: at least twice as fluorescent
BxPC-3 tumors and organs; ex vivo
  fluorescence signals in kidneys relative to tumors: equal to or higher than tumors
BxPC-3 tumors and organs; ex vivo organ-to-tumor ratio
  fluorescence ratios of large intestines and liver compared with tumors: around half
Cannabinoid CB2; [4]
  inhibition at 10 µM: -11%
Cannabinoid CB2; [5]
  remaining activity at 10 µM: 111%
Adrenergic β2; [4]
  inhibition at 10 µM: 5%
Adrenergic β2; [5]
  remaining activity at 10 µM: 95%
Serotonin 5-HT2A; [4]
  inhibition at 10 µM: -9%
Serotonin 5-HT2A; [5]
  remaining activity at 10 µM: 109%
[1]; [6]
  inhibition at 10 µM: 3%
[1]; [5]
  remaining activity at 10 µM: 97.4%
OSC-19 oral tumors
  mean TBR: 5.4 ± 1.1
Opioid κ (KOP); [7]
  inhibition at 10 µM: 19%
Opioid κ (KOP); [8]
  remaining activity at 10 µM: 81.2%
HT-29 tumors and organs
  fluorescence signal in kidneys (all dose groups), liver and skin (only 10 and 30 nmol) compared to tumor: higher
HT-29 tumors and organs; all dose groups
  tumor fluorescence relative to lungs, pancreas, muscle, gallbladder, brain, and blood: more than twice as fluorescent
[2]; 10 μM cRGD-ZW800-1, format Ag, performed twice
  % Inhibition of Control Specific Binding: 2%
[2]; 10 μM, mean of 2
  % of Control Specific Binding Mean: 97.6%
5-HT transporter; [6]
  inhibition at 10 µM: -3%
5-HT transporter; [5]
  remaining activity at 10 µM: 103%
Vasopressin V1a; [4]
  inhibition at 10 µM: 4%
Vasopressin V1a; [5]
  remaining activity at 10 µM: 96%
COX1; [9]
  inhibition at 10 µM: -8%
COX1; [5]
  remaining activity at 10 µM: 108%
Acetylcholinesterase; [9]
  inhibition at 10 µM: 2%
Acetylcholinesterase; [5]
  remaining activity at 10 µM: 98.4%
[3]; [4]
  inhibition at 10 µM: -8%
[3]; [5]
  remaining activity at 10 µM: 108%
Adrenergic β1; [7]
  inhibition at 10 µM: 18%
Adrenergic β1; [8]
  remaining activity at 10 µM: 82.3%
